Read-outs that look alike come from different tables or passages of the source. Blank lines part the entries; values can stand above or below the molecule they belong to.
Key:
[1] = tested on: nerve cells (septal area of the brain of a fetal rat); assay: Protection of cultured nerve cells (septal area) against L-glutamic acid; assay type: cell-based; settings: L-glutamic acid 100 μM
Method: Protection of cultured nerve cells
(§1) The septal area was taken out from the brain of a fetal rat. The cells were dispersed using trypsin and deoxyribonuclease and were cultured for one day on a Pit medium (Dulbecco modified Eagle medium or Ham F12 medium, commercial products of Nissui Seiyaku K. K., Japan) containing 5% horse serum and 5% fetal calf serum. After adding cytosine arabinoide (10μM) to the medium, the culturing was continued for 10 days.
(§2) L-glutamic acid (100 μM) and ES-242-1 were added to the cultured broth to measure the survival ratio of the nerve cells. For control purposes, a similar procedure was carried out with the exception that glutamic acid (100μM) and/or ES-242-1 were replaced by dimethylsulfoxide (DMSO) (0.5%). The cells which survived were counted by the fluorescence-dying method with reference to the Costa et al. method [Proc. Natl. Acad. Sci., U.S.A., 85, 7351-7355 (1988)].
(§3) The results shown in the following Table 3 were obtained in a manner similar to that described above except the cerebellum was used instead of the septal area. In the following tables, the term "GA" denotes L-glutamic acid (unit 100μM) and the term "SR" denote the survival ratio of the cells (%).

[2] = tested on: nerve cells (cerebellum of a rat); assay: Protection of cultured nerve cells (cerebellum) against L-glutamic acid; assay type: cell-based; settings: L-glutamic acid 100 μM; for viability at 5 µg/mL / viability at 1 µg/mL / viability at 10 µg/mL: Rattus norvegicus, cerebellum, read-out: survival ratio of the cells (SR); for viability at 5 µg/mL: test compound 5 μg/ml; for inhibition of the death of nerve cells induced by L-glutamic acid: cerebellum (Tables 4 and 5); for viability at 1 µg/mL: test compound 1 μg/ml; for viability at 10 µg/mL: test compound 10 μg/ml
Method: as §1, §2, §3
The results shown in the following Tables 4 and 5 were obtained by a procedure similar to that described in Experiment 1 above with the exception that the cerebellum of a rat and ES-242-2 or ES-242-5 were respectively used instead of the septal area and ES-242-1.

[3] = tested on: CAI area neurons of the hippocampus; assay: Protection of nerve cells from ischaemic injury; assay type: in vivo, Mongolian gerbils
From the text: Ischaemic injury of the nervous system was induced in the CAI area of the hippocampus of Mongolian gerbils by closing and reperfusing two cartoid arteries with reference to the Kirino et al method [Cerebral Nerve, Vol. 38, No. 12, 1157-1163 (1986)] as follows.
On each occasion, the test compound was suspended in a physiological solution of sodium chloride. The animal (body weight 60-70 g) was anesthetized with ether. The left and right common cartoid arteries were exposed through midcervical vertical skin incision and the anesthetic was discontinued. The cartoid arteries on both sides were occluded for 5 minutes using aneurism clips. Immediately after this, a given amount (100 mg/kg) of Compound ES-242-1 was given orally to the animal. One week after this, the animal was fixed by transcardic perfusion. Immediately after this, the brain was removed from the animal to prepare a sample of the histologic section containing the CIA area of the hippocampus. The number of normal cells of the CAI area neurons per 1 mm linear length was counted.
The above-mentioned treatment is hereinafter referred to as the ischaemic treatment.
For control purposes, a group of the animals were given a physiological solution of sodium chloride only, without ischaemic treatment. […]

[4] = target: N-methyl-D-aspartic acid receptor; assay: Binding activity to N-methyl-D-aspartic acid receptor ([3H]TCP binding in rat brain membranes); settings: rat brain membranes (crushed cerebrum)
Method: The binding activity of Compounds ES-242 to N-methyl-D-aspartic acid receptor was measured as follows.
With reference to the modified method of Vignon et al [Brain Research, 280, 194-197 (1983)], the binding activity of ES-242 to N-[1-(2-thienyl) cyclohexyl]-3,4-[^3 H]piperidine ([^3 H]TCP) in rat brain membranes was measured by the use of a crushed cerebrum of a rat and expressed by IC50 viz. a concentration required for 50% inhibition of the binding ability to the sample.

Solubility = assay type: physicochemical
nervous system = settings: literature report; cited from earlier work
[5] = tested on: N-methyl-D-aspartic acid receptors; settings: literature report; cited from earlier work
[6] = literature report; cited from earlier work
[7] = literature report; cited from earlier work; remark: listed apart in the source
[8] = Table 4, control 95, GA alone 56
[9] = Table 5, control 88, GA alone 40

Compound: COc1cc(OC)c2c(O)c3c(c(-c4c5c(c(O)c6c(OC)cc(OC)cc46)COC(C)C5OC(C)=O)c2c1)CC(C)OC3 (centres unmarked) [ES-242-1]
inhibition of the death of nerve cells induced by L-glutamic acid ([1]; septal area and cerebellum (Tables 2 and 3)): inhibited the death of the nerve cells
viability at 0.1 µg/mL ([1]; Rattus norvegicus, septal area, test compound 0.1 μg/ml, control 87, GA alone 5, read-out: survival ratio of the cells (SR)): 23%
viability at 0.5 µg/mL ([1]; Rattus norvegicus, septal area, test compound 0.5 μg/ml, control 87, GA alone 5, read-out: survival ratio of the cells (SR)): 73%
viability at 5 µg/mL ([2]; Table 3, control 90, GA alone 44): 75%
number of normal cells in average ± standard deviation (N) ([3]; 100 mg/kg oral immediately after 5 min occlusion, one week, n=5, normal control 100 ± 4.7, ischaemic control 0 ± 0): 24.4 ± 20.6 cells/mm
protecting activity to ischaemic injury of the nervous system ([3]; 100 mg/kg oral, gerbils): exhibited a significant protecting activity
IC50 (50% inhibition of [3H]TCP binding) [4]: 0.1 µg/mL
Solubility (Solubility; methanol, acetone, ethyl acetate and chloroform): Readily soluble
Solubility (Solubility; water and n-hexane): Insoluble

Compound: COc1cc(OC)c2c(O)c3c(c(-c4c5c(c(O)c6c(OC)cc(OC)cc46)COC(C)C5OC(C)=O)c2c1)C(OC(C)=O)C(C)OC3 (centres unmarked) [ES-242-2]
viability at 5 µg/mL ([1]; Rattus norvegicus, septal area, test compound 5 μg/ml, control 87, GA alone 5, read-out: survival ratio of the cells (SR)): 74%
viability at 50 µg/mL ([1]; Rattus norvegicus, septal area, test compound 50 μg/ml, control 87, GA alone 5, read-out: survival ratio of the cells (SR)): 74%
inhibition of the death of nerve cells induced by L-glutamic acid [2]: inhibit the death of the nerve cells
viability at 1 µg/mL [2, 8]: 44%
viability at 10 µg/mL [2, 8]: 88%
IC50 (50% inhibition of [3H]TCP binding) [4]: 1.9 µg/mL

Compound: COc1cc(OC)c2c(O)c3c(c(-c4c5c(c(O)c6c(OC)cc(OC)cc46)COC(C)C5OC(C)=O)c2c1)C(O)C(C)OC3 (centres unmarked) [ES-242-3]
IC50 (50% inhibition of [3H]TCP binding) [4]: 1.8 µg/mL

Compound: COc1cc2c(-c3c(OC)c(C)c(O)c4c(O)c5c(cc34)C[C@](C)(O)CC5=O)c3c(c(O)c2c(O)c1C)C(=O)C[C@@](C)(O)C3 [Singueanol II]
capability of protecting the nervous system (nervous system): neither capable of protecting the nervous system
antagonism against N-methyl-D-aspartic acid receptors [5]: nor antagnostic against N-methyl-D-aspartic acid receptors
anti-bacterial activity [6]: exhibit anti-aspartic and anti-bacterial activity
anti-aspartic activity [7]: exhibit anti-aspartic

Continued, in another order:

IC50 (50% inhibition of [3H]TCP binding) [4]: 14.6 µg/mL
Compound: COc1cc(OC)c2c(O)c3c(c(-c4c5c(c(O)c6c(OC)cc(OC)cc46)COC(C)C5O)c2c1)C(O)C(C)OC3 (centres unmarked) [ES-242-4]

IC50 (50% inhibition of [3H]TCP binding) [4]: 0.6 µg/mL
Compound: COc1cc(OC)c2c(O)c3c(c(-c4c5c(c(O)c6c(OC)cc(OC)cc46)COC(C)C5O)c2c1)CC(C)OC3 (centres unmarked) [ES-242-5]
inhibition of the death of nerve cells induced by L-glutamic acid [2]: inhibit the death of the nerve cells
viability at 1 µg/mL [2, 9]: 68%
viability at 5 µg/mL [2, 9]: 73%
viability at 10 µg/mL [2, 9]: 79%

From patent publication US5081264A, “Bioxanthracene derivatives” (Kyowa Hakko Kabushiki Kaisha, priority 1989, dated 1992)
